# B1: BcsZ: E. coli periplasmic cellulase encoded in cellulose synthase operons (protein, UniProt P37651 22-368, looked up)
# Endoglucanase: ACTWPAWEQFKKDYISQEGRVIDPSDARKITTSEGQSYGMFSALAANDRAAFDNILDWTQNNLAQGSLKERLPAWLWGKKENSKWEVLDSNSASDGDVWMAWSLLEAGRLWKEQRYTDIGSALLKRIAREEVVTVPGLGSMLLPGKVGFAEDNSWRFNPSYLPPTLAQYFTRFGAPWTTLRETNQRLLLETAPKGFSPDWVRYEKDKGWQLKAEKTLISSYDAIRVYMWVGMMPDSDPQKARMLNRFKPMATFTEKNGYPPEKVDVATGKAQGKGPVGFSAAMLPFLQNRDAQAVQRQRVADNFPGSDAYYNYVLTLFGQGWDQHRFRFSTKGELLPDWGQECANSH
# Key:
# Rs BcsA-B complex [1] = test: Cellulose synthase sedimentation assay (3H-labeled water-insoluble cellulose, scintillation counting); assay type: biochemical, Rhodobacter sphaeroides; conditions: for divalent cation supporting cellulose synthase activity: 20 mM cation, 45 min 37° C.
# Procedure: (FIG. 4A) Enzyme-coupled cellulose synthesis assays were performed as described in FIG. 3 in the absence or presence of 0.1 mg/ml E. coli BesZ. […] Inset: Radioactive sedimentation assay performed with ND-reconstituted BcsA-B synthesizing cellulose in the absence or presence of BcsZ. […] The obtained product is quantified relative to the polymer formed in the absence of any nucleoside diphosphate.
# FIG. 9A-9B (also referred to as Example 1, Supplementary FIG. 3): Cation selectivity and pH optimum of cellulose synthase. (FIG. 9A) Cellulose synthesis reactions were performed in the presence of 20 mM of the indicated cations or in the absence of any additional divalent cations with and without addition of 20 mM EDTA. The activities are shown relative to the activity in the presence of magnesium. […] All activity assays were performed for 45 min at 37° C. with 1 μM PLs-reconstituted. Rs BcsA-B and by quantifying the accumulation of ^3H-labeled water insoluble cellulose as described.
# Following incubation at 37° C. for 45 min, the polymerization reaction was terminated by addition of 2% SDS and the water-insoluble polymer was pelleted by centrifugation at 15,000 rpm at room temperature (RT). The obtained pellet was resuspended in 20 μL 50 mM Tris pH 7.5, 0.1 M NaCl and spotted at the origin of a descending Whatman-2MM chromatography paper, which was developed in an aqueous solution of 60% ethanol. For enzymatic degradation, the pellet was resuspended in 20 μL 50 mM sodium acetate pH 4.5 and 100 mM NaCl and was digested with 0.1 mg/ml of endo-β-1,4- or endo-β-1,3 glucanase from Aspergillus niger (TCI) or Trichoderma sp. (Megazyme), respectively. Following paper chromatography, the high molecular weight polymer retained at the origin was quantified by scintillation counting.
# Following synthesis, the reactions were treated as described above.
# Rs BcsA-B complex [2] = test: Enzyme-coupled (PK/LDH) cellulose synthase activity assay, UDP formation followed via NADH oxidation at 340 nm; assay type: biochemical, Rhodobacter sphaeroides; conditions: for residual activity with alternative substrate as only carbohydrate source, relative to UDP-Glc: 5 mM substrate, 0.5 μM PL-reconstituted BcsA-B
# Procedure: FIG. 3A-3D (also referred to as Example 1, FIG. 3): Kinetic analysis of cellulose synthesis and stimulation by cyclic-di-GMP. (FIG. 3A) Cellulose synthesis reactions were performed in the presence of IU PK and LDH, 0.5 mM NADH and 1 mM PEP. The LDH-catalyzed oxidation of NADH to NAD^+ was monitored spectrophotometrically at 340 nm. […] Addition of 1 mM UDP to the reaction rapidly depletes NADH by circumventing cellulose synthesis. […] The data were fit to monophasic Michaelis-Menten kinetics. […] All reactions were performed at room temperature with 0.5 μM ND-reconstituted BcsA-B in a total volume of 20 μl.
# Thus, the second product of the cellulose synthase reaction is UDP. […] Because PK recognizes UDP but not UMP as substrate (36), the successful coupling of cellulose synthesis with its activity implies the formation of UDP. To ensure that all BcsA-B complexes are accessible to the substrates and can contribute to the observed reaction, the complex was reconstituted into lipid nanodiscs (ND) (FIG. S4), which are edge-stabilized, planar lipid bilayer discs approximately 10 nm in diameter (37). At this size, each ND most likely contains a single BcsA-B complex (38).
# (§1) Pyruvate kinase (PK)—and lactate dehydrogenase (LDH)-coupled activity assays were performed by incubating 0.5 μM cellulose synthase with 1 U PK and 1 U LDH, 0.5 mM NADH, 1 mM phosphoenolpyruvate, and 30 mM MgCl2 in 20 mM Tris pH 7.5, 100 mM NaCl, 5 mM cellobiose and 10% glycerol in a total volume of 20 μL. The cellulose synthase complex was added last to the reaction mix after a pre-incubation for 10 min at RT. The decrease in absorbance at 340 nm was measured in a SpectraMax plate reader in Corning 384 well clear flat bottom assay plates. Control reactions in the absence of cellulose synthase were performed to determine the background NADH oxidation. Data were plotted and analyzed in Origin (5) and fitted to monophasic Michaelis-Menten kinetics as described (3).
# [3] = target: T1, Rhodobacter sphaeroides BcsA-B complex (cellulose synthase), wild type, BcsA SEQ ID NO: 1, BcsB SEQ ID NO: 3 (Cereibacter sphaeroides, UniProt Q3J125); test: Inhibition of cellulose synthesis by alternative substrates (enzyme-coupled assay, PLs-reconstituted BcsA-B); assay type: biochemical; conditions: 1 mM UDP-Glc; for inhibition of polymer synthesis by alternative UDP-sugars: increasing concentrations of UDP-sugar; for reduction of the apparent reaction rate (inhibition): 5 mM alternative UDP-sugar, 90 min, 37° C.
# T1 construct: pETDuet, E. coli C43; purified, reconstituted in nanodiscs, proteoliposomes or detergent
# T1 sequence (Q3J125 1-788): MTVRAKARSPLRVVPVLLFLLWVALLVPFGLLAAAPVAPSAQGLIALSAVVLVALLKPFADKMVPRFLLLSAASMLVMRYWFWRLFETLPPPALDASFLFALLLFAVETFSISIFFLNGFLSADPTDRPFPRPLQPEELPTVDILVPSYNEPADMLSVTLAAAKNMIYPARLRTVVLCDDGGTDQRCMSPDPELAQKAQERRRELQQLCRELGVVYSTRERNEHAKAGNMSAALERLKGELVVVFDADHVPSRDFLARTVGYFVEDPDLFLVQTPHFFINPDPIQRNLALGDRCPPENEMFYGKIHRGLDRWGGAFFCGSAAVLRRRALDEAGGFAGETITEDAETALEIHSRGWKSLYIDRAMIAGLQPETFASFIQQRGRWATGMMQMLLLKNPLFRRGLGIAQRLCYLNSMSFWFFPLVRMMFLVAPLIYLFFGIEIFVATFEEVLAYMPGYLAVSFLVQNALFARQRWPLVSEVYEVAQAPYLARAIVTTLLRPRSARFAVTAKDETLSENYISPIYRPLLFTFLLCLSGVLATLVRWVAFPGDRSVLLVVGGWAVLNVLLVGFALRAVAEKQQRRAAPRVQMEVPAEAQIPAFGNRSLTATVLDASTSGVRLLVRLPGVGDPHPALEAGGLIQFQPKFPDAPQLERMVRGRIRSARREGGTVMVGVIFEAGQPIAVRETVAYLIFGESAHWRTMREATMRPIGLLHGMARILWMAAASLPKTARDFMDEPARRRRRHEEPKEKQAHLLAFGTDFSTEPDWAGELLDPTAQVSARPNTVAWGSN
# T1 sequence (Q3J126 21-725 partner): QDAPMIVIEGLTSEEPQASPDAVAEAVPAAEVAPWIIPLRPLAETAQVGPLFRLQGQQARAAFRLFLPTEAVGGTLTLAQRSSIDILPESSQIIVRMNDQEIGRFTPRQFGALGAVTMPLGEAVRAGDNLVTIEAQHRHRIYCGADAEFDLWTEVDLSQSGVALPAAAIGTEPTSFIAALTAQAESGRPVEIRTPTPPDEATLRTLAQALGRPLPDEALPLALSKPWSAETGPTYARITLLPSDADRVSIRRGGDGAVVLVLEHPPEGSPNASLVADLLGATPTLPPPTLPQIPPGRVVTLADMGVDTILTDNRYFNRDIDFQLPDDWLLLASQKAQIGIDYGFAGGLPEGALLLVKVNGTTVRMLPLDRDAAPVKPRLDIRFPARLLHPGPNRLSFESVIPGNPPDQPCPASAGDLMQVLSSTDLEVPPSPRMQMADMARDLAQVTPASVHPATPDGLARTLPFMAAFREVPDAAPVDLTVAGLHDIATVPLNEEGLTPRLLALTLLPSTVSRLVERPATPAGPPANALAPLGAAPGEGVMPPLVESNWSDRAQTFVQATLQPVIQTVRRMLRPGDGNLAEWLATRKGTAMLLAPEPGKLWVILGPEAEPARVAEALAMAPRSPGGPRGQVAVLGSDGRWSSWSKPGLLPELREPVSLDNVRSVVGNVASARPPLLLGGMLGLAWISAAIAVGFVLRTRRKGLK
# Procedure: as §1
# [4] = 0.1 mg/ml E. coli BcsZ, ND-reconstituted BcsA-B
molecule,measurement,setting,value
[Mn+2] [Mn2+],divalent cation supporting cellulose synthase activity,Rs BcsA-B complex [1]; 1 μM PL-reconstituted BcsA-B,approximately equal activity levels
[Mg+2] [Mg2+],divalent cation supporting cellulose synthase activity,Rs BcsA-B complex [1]; 1 μM PL-reconstituted BcsA-B,approximately equal activity levels
O=c1ccn([C@@H]2O[C@H](COP(=O)(O)OP(=O)(O)O[C@H]3OC[C@H](O)[C@H](O)[C@H]3O)[C@@H](O)[C@H]2O)c(=O)[nH]1 [UDP-arabinose],"residual activity with alternative substrate as only carbohydrate source, relative to UDP-Glc",Rs BcsA-B complex [2],about 20%
O=c1ccn([C@@H]2O[C@H](COP(=O)(O)OP(=O)(O)O[C@H]3OC[C@@H](O)[C@H](O)[C@H]3O)[C@@H](O)[C@H]2O)c(=O)[nH]1 [UDP-xylose],"residual activity with alternative substrate as only carbohydrate source, relative to UDP-Glc",Rs BcsA-B complex [2],about 20%
"O=c1ccn([C@@H]2O[C@H](COP(=O)(O)OP(=O)(O)O[C@H]3OC[C@@H](O)[C@H](O)[C@H]3O)[C@@H](O)[C@H]2O)c(=O)[nH]1 [UDP-Xyl, UDP-xylose]",inhibition of polymer synthesis by alternative UDP-sugars,[3],strongest inhibitor
same,reduction of the apparent reaction rate (inhibition),[3],about 60%
O=C(O)[C@H]1O[C@H](OP(=O)(O)OP(=O)(O)OC[C@H]2O[C@@H](n3ccc(=O)[nH]c3=O)[C@H](O)[C@@H]2O)[C@H](O)[C@@H](O)[C@@H]1O [UDP-glucuronic acid],"residual activity with alternative substrate as only carbohydrate source, relative to UDP-Glc",Rs BcsA-B complex [2],about 20%
CC(=O)N[C@H]1[C@@H](OP(=O)(O)OP(=O)(O)OC[C@H]2O[C@@H](n3ccc(=O)[nH]c3=O)[C@H](O)[C@@H]2O)O[C@H](CO)[C@@H](O)[C@@H]1O [UDP-N-acetyl glucosamine],"residual activity with alternative substrate as only carbohydrate source, relative to UDP-Glc",Rs BcsA-B complex [2],about 20%
"O=c1ccn([C@@H]2O[C@H](COP(=O)(O)OP(=O)(O)O)[C@@H](O)[C@H]2O)c(=O)[nH]1 [UDP, uridine diphosphate]",product formed relative to absence of nucleoside diphosphate,"Rs BcsA-B complex [1]; 0.7 mM UDP, 0.5 mM UDP-Glc, 1 μM PL-reconstituted BcsA-B, 60 min 37° C.",50%
same,mode of inhibition of cellulose synthase,"Rs BcsA-B complex [1]; 0.7 mM UDP, increasing UDP-Glc",competitive
"CC(=O)N[C@H]1[C@@H](OP(=O)(O)OP(=O)(O)OC[C@H]2O[C@@H](n3ccc(=O)[nH]c3=O)[C@H](O)[C@@H]2O)O[C@H](CO)[C@@H](O)[C@@H]1O [UDP-NAG, UDP-N-acetyl glucosamine]",inhibition of polymer synthesis by alternative UDP-sugars,[3],concentration-dependent inhibition
same,reduction of the apparent reaction rate (inhibition),[3],20%
B1,effect on BcsA-B's apparent reaction rate,Rs BcsA-B complex [2]; [4],does not change
same,effect on accumulation of HMW cellulose,Rs BcsA-B complex [1]; [4],prevents the accumulation of HMW cellulose
